{
  "source": "PubChem BioAssay (NCI)",
  "assay_in_all_cases": "DTP human tumour cell line panel, 384-well format",
  "key": {"[1]": {"tested_on": "NCI-H322M lung"}, "[2]": {"tested_on": "NCI-H460 NSCLC"}, "[3]": {"tested_on": "NCI-H522 lung"}, "[4]": {"tested_on": "NCI/ADR-RES ovarian"}, "[5]": {"tested_on": "OVCAR-3 ovarian"}, "[6]": {"tested_on": "OVCAR-4 ovarian"}, "[7]": {"tested_on": "OVCAR-5 ovarian"}, "[8]": {"tested_on": "OVCAR-8 ovarian"}, "[9]": {"tested_on": "PC-3 prostate"}, "[10]": {"tested_on": "RPMI-8226 leukemia"}, "[11]": {"tested_on": "RXF 393 renal"}, "[12]": {"tested_on": "SF-268 CNS"}, "[13]": {"tested_on": "SF-295 CNS"}, "[14]": {"tested_on": "SF-539 CNS"}, "[15]": {"tested_on": "SK-MEL-2 melanoma"}, "[16]": {"tested_on": "SK-MEL-28 melanoma"}, "[17]": {"tested_on": "SK-MEL-5 melanoma"}, "[18]": {"tested_on": "SK-OV-3 ovarian"}, "[19]": {"tested_on": "SN12C renal"}, "[20]": {"tested_on": "SNB-19 CNS"}, "[21]": {"tested_on": "SNB-75 CNS"}, "[22]": {"tested_on": "SR leukemia"}, "[23]": {"tested_on": "SW-620 colon"}, "[24]": {"tested_on": "T-47D breast"}, "[25]": {"tested_on": "TK-10 renal"}, "[26]": {"tested_on": "U251 glioblastoma"}, "[27]": {"tested_on": "UACC-257 melanoma"}, "[28]": {"tested_on": "UACC-62 melanoma"}},
  "note": "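GI50 marks 50% less growth. Definition used: TGI = concentration required for complete inhibition of growth.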",
  "data": [
    {"smiles": "COc1cccc(-c2cc(=O)c3ccccc3o2)c1N", "values": [
      {"measurement": "GI50", "setting": "[1]", "value": "> 100", "unit": "µM"},
      {"measurement": "TGI", "setting": "[1]", "value": "> 100", "unit": "µM"},
      {"measurement": "GI50", "setting": "[2]", "value": 66.1, "unit": "µM"},
      {"measurement": "TGI", "setting": "[2]", "value": "> 100", "unit": "µM"},
      {"measurement": "GI50", "setting": "[3]", "value": 30, "unit": "µM"},
      {"measurement": "TGI", "setting": "[3]", "value": "> 100", "unit": "µM"},
      {"measurement": "GI50", "setting": "[4]", "value": 25.1, "unit": "µM"},
      {"measurement": "TGI", "setting": "[4]", "value": 74.7, "unit": "µM"},
      {"measurement": "GI50", "setting": "[5]", "value": 65, "unit": "µM"},
      {"measurement": "TGI", "setting": "[5]", "value": "> 100", "unit": "µM"},
      {"measurement": "GI50", "setting": "[6]", "value": 28.1, "unit": "µM"},
      {"measurement": "TGI", "setting": "[6]", "value": "> 100", "unit": "µM"},
      {"measurement": "GI50", "setting": "[7]", "value": 43.1, "unit": "µM"},
      {"measurement": "TGI", "setting": "[7]", "value": "> 100", "unit": "µM"},
      {"measurement": "GI50", "setting": "[8]", "value": 38, "unit": "µM"},
      {"measurement": "TGI", "setting": "[8]", "value": "> 100", "unit": "µM"},
      {"measurement": "GI50", "setting": "[9]", "value": "> 100", "unit": "µM"},
      {"measurement": "TGI", "setting": "[9]", "value": "> 100", "unit": "µM"},
      {"measurement": "GI50", "setting": "[10]", "value": 34.4, "unit": "µM"},
      {"measurement": "TGI", "setting": "[10]", "value": "> 100", "unit": "µM"},
      {"measurement": "GI50", "setting": "[11]", "value": 46.4, "unit": "µM"},
      {"measurement": "TGI", "setting": "[11]", "value": "> 100", "unit": "µM"},
      {"measurement": "GI50", "setting": "[12]", "value": "> 100", "unit": "µM"},
      {"measurement": "TGI", "setting": "[12]", "value": "> 100", "unit": "µM"},
      {"measurement": "GI50", "setting": "[13]", "value": "> 100", "unit": "µM"},
      {"measurement": "TGI", "setting": "[13]", "value": "> 100", "unit": "µM"},
      {"measurement": "GI50", "setting": "[14]", "value": "> 100", "unit": "µM"},
      {"measurement": "TGI", "setting": "[14]", "value": "> 100", "unit": "µM"},
      {"measurement": "GI50", "setting": "[15]", "value": 27.3, "unit": "µM"},
      {"measurement": "TGI", "setting": "[15]", "value": 55.7, "unit": "µM"},
      {"measurement": "GI50", "setting": "[16]", "value": 4.03, "unit": "µM"},
      {"measurement": "TGI", "setting": "[16]", "value": 9.78, "unit": "µM"},
      {"measurement": "GI50", "setting": "[17]", "value": 10.8, "unit": "µM"},
      {"measurement": "TGI", "setting": "[17]", "value": 37.9, "unit": "µM"},
      {"measurement": "GI50", "setting": "[18]", "value": 79.7, "unit": "µM"},
      {"measurement": "TGI", "setting": "[18]", "value": "> 100", "unit": "µM"},
      {"measurement": "GI50", "setting": "[19]", "value": 72.4, "unit": "µM"},
      {"measurement": "TGI", "setting": "[19]", "value": "> 100", "unit": "µM"},
      {"measurement": "GI50", "setting": "[20]", "value": "> 100", "unit": "µM"},
      {"measurement": "TGI", "setting": "[20]", "value": "> 100", "unit": "µM"},
      {"measurement": "GI50", "setting": "[21]", "value": 41.1, "unit": "µM"},
      {"measurement": "TGI", "setting": "[21]", "value": "> 100", "unit": "µM"},
      {"measurement": "GI50", "setting": "[22]", "value": 31.3, "unit": "µM"},
      {"measurement": "TGI", "setting": "[22]", "value": 96.5, "unit": "µM"},
      {"measurement": "GI50", "setting": "[23]", "value": 18.8, "unit": "µM"},
      {"measurement": "TGI", "setting": "[23]", "value": "> 100", "unit": "µM"},
      {"measurement": "GI50", "setting": "[24]", "value": 59.3, "unit": "µM"},
      {"measurement": "TGI", "setting": "[24]", "value": "> 100", "unit": "µM"},
      {"measurement": "GI50", "setting": "[25]", "value": "> 100", "unit": "µM"},
      {"measurement": "TGI", "setting": "[25]", "value": "> 100", "unit": "µM"},
      {"measurement": "GI50", "setting": "[26]", "value": 97.2, "unit": "µM"},
      {"measurement": "TGI", "setting": "[26]", "value": "> 100", "unit": "µM"},
      {"measurement": "GI50", "setting": "[27]", "value": 5.54, "unit": "µM"},
      {"measurement": "TGI", "setting": "[27]", "value": 37.2, "unit": "µM"},
      {"measurement": "GI50", "setting": "[28]", "value": 4.95, "unit": "µM"},
      {"measurement": "TGI", "setting": "[28]", "value": 28.9, "unit": "µM"}
    ]}
  ]
}
